For ten molecules, ILS and MIC results are on record in US5733924A, “DC 107 derivatives and treatment methods” (Kyowa Hakko Kogyo Co., Ltd., priority 1995, dated 1998).

A word on the ILS: it is the gain in survival time of treated over control animals, in per cent.

The structures appear in SMILES notation. Converted amounts (≈) assume the structure as drawn. Read-outs that look alike come from different tables or passages of the source.

In one assay the test system is P388 Leukemia. In words: Antitumor activity against P388 leukemia in mice (increased life span). In kind it is in vivo, CDF1 mice. The conditions noted are these: Mus musculus, P388, ip, 720 h, single i.p. 24 hours after transplantation, CDF1 mice, 30 days observation. On the procedure:
Ascites were collected from the abdominal cavity of P388 ascites tumor-bearing cancer mice (DBA/2) on the 7th day after transplantation. A number of P388 cells in the ascites was counted, and a tumor cell floating liquid of 5×10^6 cells/ml was prepared using a physiological saline solution. Then, 0.2 ml of the solution containing 1×10^6 cells was transplanted into the abdominal cavity of CDF1 mice having a body weight of from 20 to 25 g.
The effect of the test compound was determined in terms of the ratio of average survival days of the group administered with the test compound to average survival days of the control group (non-medicated group) (i.e., an increased life span, ILS%).

Assay [1] has as its system Staphylococcus aureus ATCC 6538P. In words: Antibacterial activity, agar dilution method (MIC). In kind it is cell-based. Conditions: ATCC6538P. The text has this: (§1) The antibacterial activity as determined by the agar dilution method using a medium prepared by dissolving 3 g of Bacto-Tryptone (a product of Difco Laboratories), 3 g of a meat extract, 1 g of an yeast extract, 1 g of glucose and 16 g of agar in one liter of water (pH 7).
SA: Staphylococcus aureus ATCC 6538P

In assay [2] the test system is Enterococcus faecium ATCC 10541. In words: Antibacterial activity, agar dilution method (MIC). In kind it is cell-based.
Source text: as §1
EF: Enterococcus faecium ATCC 10541
In general terms: In agar dilution the substance is mixed into plates at graded concentrations.

The subject of a further assay is Escherichia coli ATCC 26. In words: Antibacterial activity, agar dilution method (MIC). Format: cell-based.
Source text: as §1
EC: Escherichia coli ATCC 26

The subject of assay [3] is Klebsiella pneumoniae ATCC 10031. In words: Antibacterial activity, agar dilution method (MIC). In kind it is cell-based.
Source text: as §1
KP: Klebsiella pneumoniae ATCC 10031

The subject of assay [4] is Bacillus subtilis No. 10707. Description: Antibacterial activity, agar dilution method (MIC). In kind it is cell-based.
Source text: as §1
BS: Bacillus subtilis No. 10707

Where [5] appears, read: read-out: ILS (increased life span).
Where [6] appears, read: SA: Staphylococcus aureus ATCC 6538P, agar dilution, pH 7, read-out: MIC (minimum growth inhibitory concentration).
Setting [7] is: ATCC10541, EF: Enterococcus faecium ATCC 10541, pH 7, read-out: MIC (minimum growth inhibitory concentration).
Setting [8] is: ATCC26, EC: Escherichia coli ATCC 26, pH 7, read-out: MIC (minimum growth inhibitory concentration).
[9] abbreviates: ATCC10031, KP: Klebsiella pneumoniae ATCC 10031, agar dilution, pH 7, read-out: MIC (minimum growth inhibitory concentration).
Where [10] appears, read: BS: Bacillus subtilis No. 10707, pH 7, read-out: MIC (minimum growth inhibitory concentration).
Where [11] appears, read: Staphylococcus aureus, pH 7, read-out: MIC (minimum growth inhibitory concentration).
Where [12] appears, read: Enterococcus faecium, ATCC10541, pH 7, read-out: MIC (minimum growth inhibitory concentration), EF: Enterococcus faecium ATCC 10541.
The mark [13] stands for this setting: Escherichia coli, ATCC26, pH 7, read-out: MIC (minimum growth inhibitory concentration), EC: Escherichia coli ATCC 26.
[14] abbreviates: Klebsiella pneumoniae, ATCC10031, pH 7, read-out: MIC (minimum growth inhibitory concentration).
The mark [15] stands for this setting: Bacillus subtilis, NO.10707, pH 7, read-out: MIC (minimum growth inhibitory concentration), BS: Bacillus subtilis No. 10707.

Take `C/C1=C\C(OC(=O)CNC(=O)OCc2ccccc2)C(=O)/C=C/C=C\c2csc(n2)C(C)NC(=O)CC2(CC1)[S+]([O-])SC(=O)C2(C)O` (stereo not shown) [Compound 97]: the ILS at 8 mg/kg with P388 Leukemia (setting [5]) turned out to be 54%. The MIC in assay [1] (setting [6]) is 0.041 µg/mL (≈ 0.0584 µM); in assay [2] (setting [7]), 0.041 µg/mL (≈ 0.0584 µM); with Escherichia coli ATCC 26 (setting [8]), 0.65 µg/mL (≈ 0.926 µM); in assay [3] (setting [9]), 0.81 µg/mL (≈ 1.15 µM); in assay [4] (setting [10]), 0.33 µg/mL (≈ 0.47 µM).

As for `C/C1=C\C(OC(=O)CNC=O)C(=O)/C=C/C=C\c2csc(n2)C(C)NC(=O)CC2(CC1)[S+]([O-])SC(=O)C2(C)O` (stereo not shown) [Compound 99], the ILS at 8 mg/kg in the assay on P388 Leukemia (setting [5]) came to 56%. The MIC in assay [1] (setting [6]) came out at 0.041 µg/mL (≈ 0.0688 µM); in assay [2] (setting [7]), 0.041 µg/mL (≈ 0.0688 µM); in the assay on Escherichia coli ATCC 26 (setting [8]) it was 2.6 µg/mL (≈ 4.36 µM); in assay [3] (setting [9]), 0.041 µg/mL (≈ 0.0688 µM); in assay [4] (setting [10]) it was 0.041 µg/mL (≈ 0.0688 µM).

For `C/C1=C\C(OC(=O)CNC(=O)CNC(=O)c2ccccc2)C(=O)/C=C/C=C\c2csc(n2)C(C)NC(=O)CC2(CC1)[S+]([O-])SC(=O)C2(C)O` (stereo not shown) [Compound 109], the ILS at 8 mg/kg in the assay on P388 Leukemia (setting [5]) amounted to 78%. Moreover, the MIC was determined as 0.081 µg/mL (≈ 0.111 µM) in assay [1] (setting [6]); 0.081 µg/mL (≈ 0.111 µM) in assay [2] (setting [7]); 3.2 µg/mL (≈ 4.39 µM) in the assay on Escherichia coli ATCC 26 (setting [8]); 0.041 µg/mL (≈ 0.0563 µM) in assay [3] (setting [9]); 0.35 µg/mL (≈ 0.48 µM) in assay [4] (setting [10]).

Regarding `C/C1=C\C(OC(=O)CNC(=O)CN(C)C(=O)OCc2ccccc2)C(=O)/C=C/C=C\c2csc(n2)C(C)NC(=O)CC2(CC1)[S+]([O-])SC(=O)C2(C)O` (stereo not shown) [Compound 114], the ILS at 4 mg/kg with P388 Leukemia (4.0 mg/kg, read-out: ILS (increased life span)) was 70%. The MIC in assay [1] (setting [6]) was found to be 0.037 µg/mL (≈ 0.0479 µM); in assay [2] (setting [7]) it was 0.037 µg/mL (≈ 0.0479 µM); with Escherichia coli ATCC 26 (setting [8]), 11 µg/mL (≈ 14.2 µM); in assay [3] (setting [9]) it was 1.2 µg/mL (≈ 1.55 µM); in assay [4] (setting [10]) it was 0.037 µg/mL (≈ 0.0479 µM).

Regarding `C/C1=C\C(OC(=O)CNC(=O)CCNC(=O)OCc2ccccc2)C(=O)/C=C/C=C\c2csc(n2)C(C)NC(=O)CC2(CC1)[S+]([O-])SC(=O)C2(C)O` (stereo not shown) [Compound 111], the ILS at 16 mg/kg in the assay with P388 Leukemia (16 mg/kg) is 76%. In addition, the MIC in assay [1] (setting [6]) amounted to 0.33 µg/mL (≈ 0.427 µM); in assay [2] (setting [7]), 0.16 µg/mL (≈ 0.207 µM); in the assay on Escherichia coli ATCC 26 (setting [8]), 2.6 µg/mL (≈ 3.36 µM); in assay [3] (setting [9]), 0.041 µg/mL (≈ 0.053 µM); in assay [4] (setting [10]) it was 0.081 µg/mL (≈ 0.105 µM).

Take `C/C1=C\C(OC(=O)c2cnc3ccccc3n2)C(=O)/C=C/C=C\c2csc(n2)C(C)N2C(=O)CC(C(C)(O)C(=O)SCc3oc(=O)oc3C)(CC1)[S+]2[O-]` (stereo not shown) [Compound 52]: the MIC was found to be 0.72 µg/mL (≈ 0.924 µM) in assay [1] (setting [11]); 0.72 µg/mL (≈ 0.924 µM) in assay [2] (setting [12]); 92 µg/mL (≈ 118 µM) with Escherichia coli ATCC 26 (setting [13]); 23 µg/mL (≈ 29.5 µM) in assay [3] (setting [14]); 2.9 µg/mL (≈ 3.72 µM) in assay [4] (setting [15]).

For the molecule `C/C1=C\C(OC2CCCCO2)C(=O)/C=C/C=C\c2csc(n2)C(C)NC(=O)CC2(CC1)[S+]([O-])SC(=O)C2(C)O` (stereo not shown) [Compound 18], the MIC in assay [1] (setting [11]) stood at 0.16 µg/mL (≈ 0.269 µM); in assay [2] (setting [12]), 0.16 µg/mL (≈ 0.269 µM); in the assay with Escherichia coli ATCC 26 (setting [13]), 1.3 µg/mL (≈ 2.19 µM); in assay [3] (setting [14]) it was 2.6 µg/mL (≈ 4.37 µM); in assay [4] (setting [15]), 0.041 µg/mL (≈ 0.0689 µM).

With `CC(=O)OC1(C)C(=O)S[S+]([O-])C12CC/C(C)=C/C(O)C(=O)/C=C/C=C\c1csc(n1)C(C)NC(=O)C2` (stereo not shown) [Compound 25], the MIC in assay [1] (setting [6]) amounted to 1.3 µg/mL (≈ 2.35 µM); in assay [2] (setting [7]) it was 2.6 µg/mL (≈ 4.7 µM); in the assay with Escherichia coli ATCC 26 (setting [8]) it was 42 µg/mL (≈ 76 µM); in assay [3] (setting [9]) it was 10 µg/mL (≈ 18.1 µM); in assay [4] (setting [10]), 10 µg/mL (≈ 18.1 µM).

`CCOC(=O)OC1/C=C(\C)CCC2(CC(=O)NC(C)c3nc(cs3)/C=C\C=C\C1=O)[S+]([O-])SC(=O)C2(C)O` (stereo not shown) [Compound 10]: the MIC is 0.26 µg/mL (≈ 0.446 µM) in assay [1] (setting [6]); 0.26 µg/mL (≈ 0.446 µM) in assay [2] (setting [7]); 4.2 µg/mL (≈ 7.21 µM) in the assay with Escherichia coli ATCC 26 (setting [8]); 4.2 µg/mL (≈ 7.21 µM) in assay [3] (setting [9]); 0.13 µg/mL (≈ 0.223 µM) in assay [4] (setting [10]).

As to `C/C1=C\C(OC(=O)CNC(=O)[C@H](CO)NC(=O)OCc2ccccc2)C(=O)/C=C/C=C\c2csc(n2)C(C)NC(=O)CC2(CC1)[S+]([O-])SC(=O)C2(C)O` (stereo partly shown) [Compound 116], the MIC turned out to be 0.033 µg/mL (≈ 0.0418 µM) in assay [1] (setting [6]); 0.033 µg/mL (≈ 0.0418 µM) in assay [2] (setting [7]); 4.2 µg/mL (≈ 5.32 µM) in the assay on Escherichia coli ATCC 26 (setting [8]); 0.033 µg/mL (≈ 0.0418 µM) in assay [3] (setting [9]); 0.033 µg/mL (≈ 0.0418 µM) in assay [4] (setting [10]).
